For one experiment, the system named is activated neutrophils. The experiment is described as follows: Inhibition of superoxide production by PMA-activated neutrophils (WST-1 reduction), anti-inflammatory activity. The format is cell-based. Particulars: Rattus norvegicus, Neutrophil. On the procedure:
The relative anti-inflammatory properties of the test samples were determined by establishing their abilities to inhibit the activation of neutrophils as measured by the production of superoxide. The efficacy of the test samples was referenced against Aspirin, as well as an un-supplemented control group.
Samples 1, 2 and 3 (actually numbered samples 3, 4 and 5 in the above table) were produced from the same batch of mussels. Each of the above test samples was extracted with ethanol at a ratio of 1:10 (w:v) and the residues were then extracted with distilled water at the same ratio, so that the activity of both the lipid rich or hydrophobic fraction and the hydrophilic or aqueous fraction of each of the test samples could be tested. The experimental procedure for determining the effects of the test samples on inflammation was based on the methods described in Tan, A S and Berridge, MV (2000). Superoxide produced by activated neutrophils efficiently reduces the tetrazolium salt, WST-1 to produce a soluble formazan: a simple colorimetric assay for measuring respiratory burst activation and for screening of anti-inflammatory agents. J Immunol. Meth. 238: 59-68. Neutrophils were harvested from rat whole blood and activated with phorbol 12-myristate 13-acetate (PMA). The activated neutrophils were then incubated and cultured in the presence of each of the test samples and the controls. The reduction of the WST-1 dye was measured to determine the products of superoxide. The control group was set at 100% activity (0% inhibition) and the inhibition of all samples were compared to this reference.
The ethanol and water extracts (lipid rich and hydrophilic fractions) from each of the test samples were tested at 400 μg/ml for their anti-inflammatory activity based on the inhibition of superoxide by activated neutrophils. The yields of each extraction were used along with the activity of each to obtain an estimate for the total activity within each of the test samples for the two fractions.
On the technique in general: Formazan colour is commonly taken as a measure of viable cells.

Experiment [1] is described as follows: DPPH scavenging method (antioxidant activity). As to conditions: reference value used for FIG. 8. Here is the method: The antioxidant activity of each of the samples was tested using the DPPH scavenging method (i.e. by using the stable free radical 2,2-Diphenyl-1-(2,4,6-trinitrophenyl) hydrazyl as a substrate). Whilst the DPPH method is not a direct anti-inflammatory assay, antioxidant activity has been an indication of anti-inflammatory activity in many study cases. The DPPH solution was prepared […] and kept in the freezer in the dark before use. The positive control was ascorbic acid prepared as 0.1 mg/ml in a buffer containing citric acid and NaHPO4 (pH 5). Equal amounts of sample solution and DPPH solution were added together, and the assay tube or plate was incubated for 30 minutes in the dark, followed by absorbance measurement at 517 nm on a spectrophotometer. In the blank control experiment of each sample, DPPH was replaced with ethanol. In the DPPH blank control experiment, the sample was replaced with the media (water or solvent) the sample was prepared in.
The scavenging activity (DPPH inhibition %) is calculated by percentage of the absorbance from the sample versus the DPPH only:
All samples were tested at a concentration of 10 mg/ml.
(The DPPH test is a chemical assay of radical scavenging.)

As a reminder, the IC50 is the concentration that inhibits the measured activity by half. Broadly, the inhibition is the change of the read-out against control, counted positive when it falls. Low values mean a response near the control, high ones a response far below the control. As for `CC(=O)Oc1ccccc1C(=O)O` [Aspirin], the 50% inhibitory concentration (IC50) in the experiment with activated neutrophils (reference value used for FIG. 7, read-out: IC50 of aspirin equivalent) was determined as 400 µg/mL. For the same compound, in the experiment on activated neutrophils (reference, 100 μg/ml), at 100 µg/mL the inhibition was 16.5%. In the experiment on activated neutrophils (reference, 200 μg/ml), this compound gave an inhibition at 200 µg/mL of 48.1%. Also, at 400 µg/mL the inhibition with activated neutrophils (reference, 400 μg/ml) was 50.2%.

As for Vitamin E, in experiment [1], the “IC50 of Vitamin E equivalent” value is 9.26 µg/mL.
